Laboratory results from publication PMC4214736, “Identification of a Novel Drug Lead That Inhibits HCV Infection and Cell-to-Cell Transmission by Targeting the HCV E2 Glycoprotein” (PLoS ONE, 2014).

What was measured:
[1] = biological target: T1, recombinant HCV E2 protein (Con1eE2, eE2) (Hepatitis C virus (isolate Con1), UniProt Q9WMX2); test: SPR single concentration screen (Biacore T100, CM5 chip); assay type: binding; conditions: 200 µM ligand in PBS; E2 immobilised by amine coupling (about 10,000 RU)
T1 construct: E2 ectodomain residues 384-656 cut from the HCV genome polyprotein; C-terminal Protein A tag removed by PreScission protease; secreted from HEK293T cells (lentiviral)
Description: SPR single concentration screen (Biacore T100, CM5 chip) on recombinant HCV E2 protein (Con1eE2, eE2)

[2] = biological target: T1, recombinant HCV E2 protein (Con1eE2, eE2); test: SPR single cycle kinetics (Biacore T100, CM5 chip); assay type: binding
his-tagged CD81-LEL = biological target: T2, his-tagged CD81-LEL (Homo sapiens, UniProt P60033); test: SPR single cycle kinetics (Biacore T100, CM5 chip); assay type: binding
T2 construct: His-tagged, commercial (Bioclone Inc.)
T2 sequence (P60033 113-201 limits assumed): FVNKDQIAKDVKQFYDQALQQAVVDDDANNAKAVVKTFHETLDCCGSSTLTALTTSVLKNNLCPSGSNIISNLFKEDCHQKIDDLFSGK

[3] = biological target: T3, HCV E2 protein binding to GST-tagged human CD81-LEL (Hepatitis C virus (isolate Con1), UniProt Q9WMX2); test: ELISA, inhibition of E2 binding to immobilised CD81-LEL
T3 construct: with CD81 antigen (Homo sapiens)

[4] = biological target: HCV E2 protein Con1 eE2 (envelope protein 2 ectodomain, amino acids 384-656) (Hepatitis C virus, isolate Con1 (genotype 1)) (UniProt Q9WMX2); test: SPR; Biacore T100; HCV E2 (1 µM in 10 mM sodium acetate pH 5) immobilised on a CM5 chip by amine coupling, about 10,000 RU; his-CD81 (50 nM) in PBS injected as positive control
Sequence of HCV E2 protein Con1 eE2 (envelope protein 2 ectodomain, amino acids 384-656) (Hepatitis C virus, isolate Con1 (genotype 1)) (Q9WMX2 384-656): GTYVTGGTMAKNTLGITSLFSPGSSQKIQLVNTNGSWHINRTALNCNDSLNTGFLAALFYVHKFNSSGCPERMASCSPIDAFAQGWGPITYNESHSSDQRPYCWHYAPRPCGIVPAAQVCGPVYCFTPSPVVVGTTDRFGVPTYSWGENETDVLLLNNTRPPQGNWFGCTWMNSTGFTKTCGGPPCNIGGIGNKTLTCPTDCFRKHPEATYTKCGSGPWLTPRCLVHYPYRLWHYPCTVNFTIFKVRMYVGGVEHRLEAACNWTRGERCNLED

T1 sequence (Q9WMX2 384-656): as above
T3 sequence (Q9WMX2 384-656, one chain of several): as the sequence (Q9WMX2 384-656) above

Nc1nc(N)nc(-c2ccccc2-c2nc(N)nc(N)n2)n1 [compound 4429, NSC# 4429]
Binding (RU) [1]: 155.3 RU

Cc1nc(/N=C(/N)N(C)C)[nH]c(=O)c1C [compound 113486, NSC# 113486]
Binding (RU) [1]: 104.7 RU

CC1(C)N=C(N)N=C(N)N1c1ccc(OCCCOc2ccccc2)c(Cl)c1.CCS(=O)(=O)O [compound 133071, NSC# 133071]
Binding (RU) [1]: 276.3 RU

COc1ccc(C2=CC(c3ccc(OC)c(OC)c3)c3c(c4ccccc4oc3=O)O2)cc1OC (stereo not drawn) [compound 211490, NSC# 211490]
Binding (RU) [1]: 102.9 RU

CSc1ccc2c(c1)C(N1CCN(C)CC1)Cc1ccccc1S2 (stereo not drawn) [compound 281816, 1-methyl-4-(3-methylsulfanyl-5,6-dihydrobenzo[b] [1]benzothiepin-5-yl)piperazine]
Kd [2]: 41 µM | Kd (his-tagged CD81-LEL): 57 µM | IC50 [3]: 0.2 to 0.5 µM

His-CD81-LEL (large extracellular loop of CD81, his-tagged) (domain or fragment)
response units bound [4]: 106 RU

NSC# 144694 [compound 144694]
Binding (RU) [1]: 118.8 RU
